Test: Particle size analysis of micronized progesterone API (Beckman Device, ULM)
Type: physicochemical
Conditions: sample API, Fraunhofer optical model
Description: Particle size may be determined in any suitable manner. For example, a Beckman Coulter LS 13 320 Laser Diffraction Particle Size Analyzer (the “Beckman Device”) may be used to determine particle size. As described above, particle size may be represented by various metrics, for example, through an X50 particle size, and/or X90 particle size, or similar descriptions of particle size.
The Beckman Device may be used with various modules for introducing a sample for analysis. The Beckman Device may be used with the LS 13 320 Universal Liquid Module (“ULM”). The ULM is capable of suspending samples in the size range of 0.017 μm to 2000 μm. The ULM is a liquid based module that allows for delivery of the sample to the sensing zone. The ULM recirculates the sample through the Beckman Device. The ULM comprises two hoses, one for fluid delivery and another for waste. The total volume used may be 125 mL or less. A sample mass of from about 1 mg to about 10 g may be used. The ULM may interact with the Beckman Device via pins that fit into slots on the ULM. The ULM may use a variety of suspension fluids, for example, water, butonol, ethanol, chloroform, heptanes, toluene, propanol, COULTER Type 1B Dispersant (“Coulter 1B”), and a variety of other suspension fluids. Surfactants may also be used, though pump speed should be adjusted to prevent excessive bubbling. […]

X25: 1.590 μm
X75: 7.442 μm
Structure (SMILES): CC(=O)[C@H]1CC[C@H]2[C@@H]3CCC4=CC(=O)CC[C@]4(C)[C@H]3CC[C@]12C [Progesterone, progesterone]
